# Source: publication PMC7044196, “B38-CAP is a bacteria-derived ACE2-like enzyme that suppresses hypertension and cardiac dysfunction” (Nature Communications, 2020)
# Legend:
# [1] = biological target: T1, recombinant human ACE2 (rhACE2) (Homo sapiens, UniProt Q9BYF1); assay: fluorogenic peptide hydrolysis assay; type: biochemical
# T1 construct: recombinant human ACE2 from Calbiochem for the constants
# Text: fluorogenic peptide hydrolysis assay on recombinant human ACE2 (rhACE2)
# B38-CAP = system: T2, B38-CAP; assay: fluorogenic peptide hydrolysis assay; type: biochemical, Paenibacillus sp. B38; settings: pH 7.5 HEPES, 0.3 M NaCl, 0.01% Triton X-100, 37 °C, 30 min; fluorogenic ACE2 substrate
# T2 construct: no tag mentioned
# Text: fluorogenic peptide hydrolysis assay on B38-CAP
# T1 sequence (Q9BYF1 18-740 limits assumed): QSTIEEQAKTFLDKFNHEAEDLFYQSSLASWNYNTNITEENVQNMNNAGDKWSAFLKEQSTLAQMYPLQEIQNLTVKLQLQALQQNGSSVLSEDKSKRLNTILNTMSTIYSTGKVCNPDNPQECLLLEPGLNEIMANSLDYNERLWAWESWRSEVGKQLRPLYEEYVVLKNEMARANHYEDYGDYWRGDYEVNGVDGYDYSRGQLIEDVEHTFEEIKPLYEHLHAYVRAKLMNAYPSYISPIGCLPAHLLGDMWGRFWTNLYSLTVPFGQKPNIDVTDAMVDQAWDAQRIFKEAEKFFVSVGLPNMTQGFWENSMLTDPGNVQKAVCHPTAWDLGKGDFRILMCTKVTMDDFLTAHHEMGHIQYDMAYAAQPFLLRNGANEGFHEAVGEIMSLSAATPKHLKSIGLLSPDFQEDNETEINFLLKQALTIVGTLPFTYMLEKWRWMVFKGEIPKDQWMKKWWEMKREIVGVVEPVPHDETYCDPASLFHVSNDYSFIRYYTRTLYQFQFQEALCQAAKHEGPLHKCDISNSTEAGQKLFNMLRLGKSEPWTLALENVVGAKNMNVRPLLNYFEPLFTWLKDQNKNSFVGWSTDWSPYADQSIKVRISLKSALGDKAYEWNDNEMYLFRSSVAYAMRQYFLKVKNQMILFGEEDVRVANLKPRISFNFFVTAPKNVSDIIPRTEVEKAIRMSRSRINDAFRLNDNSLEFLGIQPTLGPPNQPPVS
structure (smiles),measurement,setting,value
CC(C)C[C@H](N[C@@H](Cc1cncn1Cc1cc(Cl)cc(Cl)c1)C(=O)O)C(=O)O [MLN-4760],IC50,[1],0.34 ± 0.0501 nM
same,IC50,B38-CAP,0.71 ± 0.173 nM
